# Experimental data taken from PMC12566046, “Arylpiperazinyl-Benzocycloheptapyrrole-Carboxamides Endowed with Dual Anticancer and Antiviral Activities” (Molecules, 2025).
# What was measured:
# MDCK cells = settings: dog
# Huh-7 cells = test: Cytotoxicity on uninfected Huh-7 cells (WST-8, crystal violet); settings: read-out: ZIKV/Huh‐7 CC50; preliminary screening (50, 5, 0.5 μM), Huh-7
# [1] = test system: NCI-H460 (non-small cell lung cancer); test: NCI-60 five-dose assay; format: cell-based; settings: Homo sapiens, five-dose screen
# [2] = test system: CAKI-1 (renal cancer cell line); test: NCI-60 five-dose assay; format: cell-based; settings: Homo sapiens, five-dose screen
# [3] = test system: OVCAR-4 (ovarian cancer cell line); test: NCI-60 single-dose assay; format: cell-based, human
# Method in brief: (§1)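 Read-out is cytotoxic activity from a single-concentration test; the panel spans nine human cancer types, including leukemia, lung, colon and renal.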
# [4] = test system: PC-3 (prostate cancer cell line); test: NCI-60 single-dose assay; format: cell-based, human
# Method in brief: as §1
molecule,measurement,setting,value
O=C(NCCN1CCN(c2ccc(Cl)cc2)CC1)c1c(Cl)[nH]c2c1CCCc1ccccc1-2 [Compound 13],IAV/MDCK CC50,MDCK cells,225.00 µM
"N-(3-(4-Benzylpiperazin-1-yl)propyl)-2-chloro-1,4,5,6-tetrahydrobenzo[6,7]cyclohepta[1,2-b]pyrrole-2-carboxamide [Compound 11]",CC50,Huh-7 cells,4.89 µM
"CCN1CCC[C@H]1CNC(=O)c1[nH]c2c(c1Cl)CCCc1ccccc1-2 [Compound 1, (S)-3-Chloro-N-(1-ethyl-2-pyrrolidinylmethyl)-5,6-dihydro-4H-benzo[6,7]cyclohepta[1,2-b]pyrrol-2-carboxamide]",GI50,[1],2.03 µM
same,GI50,[2],2.29 µM
COc1ccccc1N1CCN(CCNC(=O)c2c(Cl)[nH]c3c2CCCc2ccccc2-3)CC1 [Compound 15],growth inhibition (GI%),[3],66.06%
same,growth inhibition (GI%),[4],75.11%
